Results on one compound are retold here after US20210198629A1, “COMPOSITIONS AND METHODS FOR INCREASING BEIGING OF WHITE ADIPOSE TISSUE” (University of Georgia Research Foundation, Inc., priority 2018, published 2021).

One assay relates to AML xenograft model. To be noted: cited from earlier work.
Assay [1] relates to DIO mice. The assay can be described thus: Body weight, adiposity (BIS), food intake, treadmill exhaustion in DIO mice after oral BI-7273. It is filed as in vivo, mouse. The method, then: Treadmill exhaustion test was performed with an Exer 3/6 treadmill and controller (Columbus Instruments). The treadmill was set up with a uphill inclination of 10%.
Mice were anesthetized with 1% isoflurane and lied flat dorsal side up with limbs perpendicular and tail straight. Four electrodes of ImpediVET were fastened with 28G needles and placed on four points on the midline of the body. Fat-free mass (FFM) and fat mass (FM) were calculated from total body water (TBW) determined by input body weight and complex impedance plotting of 256 frequencies between 4 kHz and 1000 kHz.
Given the above augmentation of whole-body energy expenditure in BI-7273 treated DIO models, whether BI-7273 is sufficient to induce body weight loss and reduce adiposity (anti-obesity effects) was also investigated. DIO models were gavaged with BI-7273 or control 0.5% Natrosol for 14 days as described above and later fed with HFD for one additional month. […] On average, BI-7273 treated DIO mice lost ˜15.5% of body weight at the end of the study (1.5 months after the start of gavage; FIG. 5F). This weight loss rate is higher than the criterium established by the Endocrine Society for effective treatment of obesity (>5% weight loss over three months) (Apovian, C. M., et al., J Clin Endocrinol Metab, 100, 342-362 (2015)).
Using bioimpedance spectroscopy (BIS), the adiposity (fat mass percent) of mice before and after gavage was measured. […] On average, the reduced fat mass (55 grams×21%=11.6 grams) in BI-7273 treated mice was more than the body weight loss at the end of the study (˜9 grams), which indicates a concomitant increase of lean mass in BI-7273 treated DIO mice.

Assay [2] concerns iWAT and eWAT of diet-induced obesity (DIO) mice. Description: Oral BI-7273 in DIO mice: WAT beiging, H/E, UCP1 IHC, RT-qPCR, mitochondrial copy number. The note with it: for mRNA levels of Ucp1, increase: vs control mice. It is filed as in vivo, mouse. The protocol: All animal studies were approved by the University of Georgia Institutional Animal Care and Use Committee (IACUC) and performed strictly following the guidelines Animals were housed in a temperature-controlled (22° C.) environment with 12:12-hrs light:dark cycle and allowed food and water […]. All mouse strains were purchased from the Jackson Laboratory: C57BL/6J: #000664; Ucp1-Cre: #024670; ROSA-INTACT: #021039. To generate diet-induced obesity and type 2 diabetes models, 8-week old C57BL/6J mice (both males and females) were fed with a high-fat diet (60% fat, Research Diet, catelog #D12492) for […]. To perform gavage feeding, animals were immobilized by hands and a gavage solution (0.5% Natrosol or 0.5% Natrosol containing BI-7273, […]) was administered through a 1 mL syringe equipped with a disposable gavage needle.
For histology, iWAT was excised from mice and fixed with 10% formalin, dehydrated and embedded in paraffin. The sliced tissue (5 μm) was stained with hematoxylin and eosin Y (Sigma Aldrich). Cell size was quantified by NIH ImageJ (ver 1.47t). Alternative sections were used for immunohistochemistry detection of UCP1 and H/E staining. Paraffin sections were antigen unmasked with Tris-EDTA buffer (10 mM Tris Base, 1 mM EDTA, 0.05% Tween 20, pH 9.0) in 93° C. for 15 min. Sections were blocked with blocking solution (10% normal goat serum and 1% BSA in PBS) for 1 hr at room temperature and incubated with the primary antibody (anti-UCP1, 1:200 diluted in blocking solution) overnight at 4° C. The endogenous peroxidase was quenched with 3% hydrogen peroxide. Sections were incubated with the secondary antibody for 1 hr at room temperature. Slides were developed with DAB (VectorLab) for 5 min followed with hemotoxylin conterstaining for 1 min. Color images were captured on a Leica DM4000B microscope equipped with a DFC450c camera.
Total RNA was isolated from tissue or cell culture using TRIzol. Total RNA (500 ng) from tissues or cell culture was used in 25 μL reverse transcription reactions (Maxima; Life technologies) and diluted into 250 μL. Diluted cDNA (2 μL) was used in quantitative PCR reactions (SsoAdvanced™ Universal SYBR Green mix; Bio-Rad) on a BioRad CFX384™ Real-Time PCR Detection System. Cq-values were determined and expression values were calculated by BioRad CFX Manager™ Software. Relative mRNA expression values were normalized to inner reference genes Rps18 and Tbp of each biological sample. For mitochondrial copy number qPCR, mitochondrial Cox2 gene was amplified and normalized to genomic β-globin gene.
[…]. The efficacy of BI-7273 in inducing beige adipocyte formation in vivo was tested within diet-induced obesity (DIO) and type 2 diabetes mouse models. To generate DIO models, adult C57BL/6 mice (8-week age, both males and females) were fed with a high-fat diet (HFD; 60% calories from fat) for 12 weeks. To administer BI-7273, BI-7273 mixed in 0.5% Natrosol (100 mg/kg/day, 200 uL) was gavaged for 14 days. For the control mice, 0.5% Natrosol in the same volume was gavaged during the same period. The high-fat diet was changed to the normal chow during gavaging to maximize the uptake of BI-7273. DIO models of control and BI-7273 treatment groups were euthanized after 14-day of gavaging and adipose tissues (iWAT and eWAT) were subjected to H/E staining and UCP1 immunohistochemistry (IHC) to identify beige adipocytes. […].

Assay [3] relates to DIO mice. Description: Indirect calorimetry of DIO mice after oral BI-7273. It is filed as in vivo, mouse. The method, then: Indirect calorimetry was performed on a Columbus Instruments CLAMS system equipped with 8 metabolic cages. Oxygen consumption (VO2; ml/min) and carbon dioxide production (VCO2; ml/min) were measured at 22° C. with 12-hr:12-hr dark:light cycles. Total energy expenditure was estimated using the equation published before […]). Data were normalized to the body weight of each animal. Physical activity is measured by counting infrared beam breaking events.
Next, whether oral administration of BI-7273 is sufficient to increase the whole-body energy expenditure was investigated. DIO models were gavaged with BI-7273 or control 0.5% Natrosol for 14 days as described above and later housed individually in metabolic cages for 10 days. […] HFD-fed control DIO models had very low respiratory exchange ratios (RER; ˜0.6 in light cycles and 0.72 in dark cycles), which is consistent with their high lipid utilization and insulin resistance (IR) states.

Setting [4] is: eWAT, 100 mg/kg/day gavage for 14 days.
Where [5] appears, read: iWAT, 100 mg/kg/day gavage for 14 days.
The mark [6] stands for this setting: light and dark cycles, after 14-day gavage.

As to `COc1cc(-c2cn(C)c(=O)c3cnccc23)cc(OC)c1CN(C)C` [BI-7273, 4-[4-[(dimethylamino)methyl]-3,5-dimethoxyphenyl]-2-methyl-2,7-naphthyridin-1-one], in the assay with AML xenograft model, the antitumor activity result is reported as “antitumor activity”. For the same compound, in the assay on DIO mice [1] (55 grams×21%, end of study), the reduced fat mass is 11.6 grams. For the same compound, the “adiposity (fat mass percent)” value in the assay with DIO mice [1] (BIS, end of study, 1.5 months after the start of gavage, ~47% before gavage) was approximately 26%. Also, the “treadmill performance (time until exhaustion)” value in the assay with DIO mice [1] (after treatment) is on record as “improved”. In the assay on DIO mice [1] (before and after gavage, vs control group), the food intake result is given as “comparable”. For the same compound, the body weight lost with DIO mice [1] (end of study, 1.5 months after the start of gavage, HFD refeeding) is given as approximately 15.5%. Besides, the body weight loss with DIO mice [1] (end of the study) is given as approximately 9 grams. Besides, the lean mass entry in the assay on DIO mice [1] (inferred from fat mass vs body weight loss) is on record as “increase”. For the same compound, in assay [2] (setting [4]), the “mRNA levels of Pgc1β, increase” value is 4.9 fold and the “mRNA levels of Ucp1, increase” value was determined as 6 fold. In addition, the Pgc1β expression entry in assay [2] (iBAT, limb muscles (TA, EDL), and liver) is given as “increased”. Further, the “other beige adipocyte markers (Cedia, Dio2, Elovl3, Cox8b)” value in assay [2] (iWAT and eWAT, 100 mg/kg/day gavage for 14 days) is reported as “increased”. Besides, the “overall size of adipocytes” value in assay [2] (iWAT and eWAT, 100 mg/kg/day gavage for 14 days, H/E) was “overtly reduced”. Besides, the “multiocular UCP1+pos beige adipocytes” value in assay [2] (iWAT and eWAT, 100 mg/kg/day gavage for 14 days, UCP1 IHC) is reported as “induced the formation”. The “Pgc1α mRNA levels” value in assay [2] (iWAT or eWAT, 100 mg/kg/day gavage for 14 days) is “not affected”. Further, in assay [2] (iWAT, eWAT, iBAT, limb muscles, liver), the “mitochondrial genome copy number, higher than control DIO mice” value was 2.5-8.5 folds. In assay [2] (setting [5]), the “mRNA levels of Pgc1β, increase” value amounted to 3.8 fold and the “mRNA levels of Ucp1, increase” value amounted to 22 fold. Besides, the “respiratory exchange ratio (RER)” value in the assay with DIO mice [3] (light and dark cycles) is listed as “markedly increased”. Moreover, in the assay on DIO mice [3] (setting [6]), the “oxygen consumption (VO2)” value is on record as “drastically increased” and the “total energy expenditure (E.E.)” value is “drastically increased”. For the same compound, in the assay with DIO mice [3] (vs control, light or dark cycles), the physical activity result is “comparable”.
